Experimental data: patent US20070117743A1, “New antitumoral compounds” (priority 2003, published 2007)
Where a SMILES comes first, the peptide text is derived from it. Bridges are numbered along the chain shown (N, C = ends). [ ]: non-standard residue; d: D form. The star is where a group is joined. d(aIle) = CC[C@H](C)[C@@H](N)C(=O)O; d(aThr) = C[C@@H](O)[C@@H](N)C(=O)O; Hexanoyl(5-Me) = CC(C)CCCC(=O)*; Orn = NCCC[C@H](N)C(=O)O; Dhb = C/C=C(\N)C(=O)O

Tests used:
Type in all cases: cell-based, human
Settings in all cases: 48 hours exposure
[1] = tested on: SK-MEL-28; test: SRB colorimetric assay of cell growth and viability, SK-MEL-28
[2] = tested on: DU-145; test: SRB colorimetric assay of cell growth and viability, DU-145
[3] = tested on: IGROV-ET; test: SRB colorimetric assay of cell growth and viability, IGROV-ET
[4] = tested on: SK-OV-3; test: SRB colorimetric assay of cell growth and viability, SK-OV-3
Source text: The finality of this assay is to interrupt the growth of a “in vitro” tumor cell culture by means a continued exhibition of the cells to the sample to be testing.
A colorimetric type of assay, using sulforhodamine B (SRB) reaction has been adapted for a quantitative measurement of cell growth and viability [following the technique described by Philip Skehan, et al. (1990), New colorimetric cytotoxicity assay for anticancer drug screening, J. Natl. Cancer Inst., 82:1107-1112].
This form of the assay employs 96 well cell culture microplates of 9 mm diameter (Faircloth, 1988; Mosmann, 1983). Most of the cell lines are obtained from American Type Culture Collection (ATCC) derived from different human cancer types.
Cells are maintained in RPMI 1640 10% FBS, supplemented with 0.1 g/l penicillin and 0.1 g/l streptomycin sulfate and then incubated at 37° C., 5% CO2 and 98% humidity. For the experiments, cells were harvested from subconfluent cultures using trypsin and resuspended in fresh medium before plating.
Cells are seeded in 96 well microtiter plates, at 5×10^3 cells per well in aliquots of 195 μL medium, and they are allowed to attach to the plate surface by growing in drug free medium for 18 hours. Afterward, samples are added in aliquots of 5 μL in a ranging from 10 to 10^−8 μg/mL, dissolved in DMSO:EtOH:PBS (0.5:0.5:99). After 48 hours exposure, the antitumor effect are measured by the SRB methodology: cells are fixed by adding 50 μL of cold 50% (wt/vol) trichloroacetic acid (TCA) and incubating for 60 minutes at 4° C. Plates are washed with deionized water and dried. One hundred μL of SRB solution (0.4% wt/vol in 1% acetic acid) is added to each microtiter well and incubated for 10 minutes at room temperature. Unbound SRB is removed by washing with 1% acetic acid. Plates are air dried and bound stain is solubilized with Tris buffer. Optical densities are read on a automated spectrophotometric plate reader at a single wavelength of 490 nm.
The values for mean+/− SD of data from triplicate wells are calculated. Some parameters for cellular responses can be calculated: GI=growth inhibition, TGI=total growth inhibition (cytostatic effect) and LC=cell killing (cytotoxic effect).

[5] = tested on: A-549; test: SRB colorimetric assay of cell growth and viability, A-549
[6] = tested on: HT-29; test: SRB colorimetric assay of cell growth and viability, HT-29
[7] = tested on: PANC-1; test: SRB colorimetric assay of cell growth and viability, PANC-1
[8] = tested on: K-562; test: SRB colorimetric assay of cell growth and viability, K-562
[9] = tested on: LNCaP; test: SRB colorimetric assay of cell growth and viability, LNCaP
[10] = tested on: IGROV-1; test: SRB colorimetric assay of cell growth and viability, IGROV-1
[11] = tested on: LoVo; test: SRB colorimetric assay of cell growth and viability, LoVo
[12] = tested on: LoVo-Dox; test: SRB colorimetric assay of cell growth and viability, LoVo-Dox
Procedure, shortened: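 Here, cells grow drug-free for 18 h, then receive sample dilutions from 10 down to 10^−8 μg/mL for 48 h at 37° C. Protein-bound SRB is solubilized in Tris and quantified at 490 nm.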

Compound: C/C=C1\NC(=O)[C@H](Cc2ccccc2)NC(=O)[C@@H](C(C)C)NC(=O)[C@@H]([C@@H](C)CC)NC(=O)[C@H](NC(=O)[C@H](NC(=O)[C@H](CCCN)NC(=O)[C@H]2CCCN2C(=O)[C@H](NC(=O)CCCC(C)C)C(C)C)[C@@H](C)CC)[C@@H](C)OC(=O)[C@H](C(C)C)NC1=O [Compound 31, [noVal^11, noThr^12, noD-Val^13]-KF] ({Hexanoyl(5-Me)}-[dV][dP][Orn][d(aIle)][d(aThr)][d(aIle)][dV]F[Dhb]V; ester 5-C)
- GI50 [1]: 4.21 µM
- TGI MEL-28 [1]: 8.49E−06 Molar
- CC50 ([1]; read-out: LC50 MEL-28): 8.49 µM
- GI50 [2]: 3.3 µM
- LC50 (concentration causing 50% net cell kill) [2]: 8.49 µM
- TGI DU-145 [2]: 6.37E−06 Molar
- GI50 [3]: 2.69 µM
- TGI IGROV-ET [3]: 4.07E−06 Molar
- CC50 ([3]; read-out: LC50 IGROV-ET): 6.18 µM
- TGI SKOV-3 [4]: 5.03E−06 Molar
- GI50 ([4]; read-out: GI50 SKOV-3): 2.21 µM
- CC50 ([4]; read-out: LC50 SKOV-3): 8.49 µM
- TGI A-549 [5]: 8.49E−06 Molar
- GI50 ([5]; read-out: GI50 A-549): 5.91 µM
- CC50 ([5]; read-out: LC50 A-549): 8.49 µM
- TGI HT-29 [6]: 8.49E−06 Molar
- GI50 ([6]; read-out: GI50 HT-29): 8.49 µM
- CC50 ([6]; read-out: LC50 HT-29): 8.49 µM
- GI50 [7]: 2.12 µM
- TGI PANC-1 [7]: 3.63E−06 Molar
- CC50 ([7]; read-out: LC50 PANC-1): 6.23 µM
- GI50 [8]: 2.21 µM
- TGI K-562 [8]: 4.26E−06 Molar
- CC50 ([8]; read-out: LC50 K-562): 8.18 µM
- TGI LN-caP [9]: 3.79E−06 Molar
- GI50 ([9]; read-out: GI50 LN-caP): 1.94 µM
- CC50 ([9]; read-out: LC50 LN-caP): 7.39 µM
- GI50 [10]: 2.69 µM
- LC50 (concentration causing 50% net cell killing) [10]: 6.25 µM
- TGI IGROV [10]: 4.10E−06 Molar
- GI50 [11]: 8.49 µM
- TGI LOVO [11]: 8.49E−06 Molar
- CC50 ([11]; read-out: LC50 LOVO): 8.49 µM
- GI50 [12]: 2.38 µM
- TGI LOVO-DOX [12]: 4.00E−06 Molar
- CC50 ([12]; read-out: LC50 LOVO-DOX): ≥ 6.75 µM
